The conditions of series [1]: mixture of 1000 ppm nitric oxide and 21% oxygen; cited from earlier work.
The nature of series [2]: Percutaneous absorption of nitric oxide, in vitro Franz human skin finite dose model. Conditions: delivered at a pressure of 1.2 atm as compared with normal pressure; Franz diffusion cell, human skin (FIG. 10). The series is classed as in vitro ADME. How it is done: The percutaneous absorption of nitric oxide is evaluated using a Franz human skin finite dose model. The in vitro Franz human skin finite dose model has proven to be a valuable tool for the study of percutaneous absorption and the determination of the pharmacokinetics of topically applied drugs. The model uses human ex vivo cadaver or surgical skin mounted in a specially designed diffusion chamber allowing the skin to be maintained at a temperature and humidity that match typical in vivo conditions. A finite dose of a formulation is applied to the outer surface of the skin and drug absorption is measured by monitoring its rate of appearance in the reservoir solution bathing the inner surface of the skin. In this study, the applied dose is a controlled continuous exposure to a gas. Data defining total absorption, rate of absorption, as well as skin content can be accurately determined in this model. […]
A single center, open label study of nitric oxide formulations is performed. […] The rate and extent of penetration of nitric oxide, at normal pressure and at greater than 1 atm of pressure (e.g., 1.2×, 1.5×, 1.8×, 2.0×, 2.2×, etc.) for continuous exposure durations of 30 and 60 minutes is determined for the amount penetrating through the skin and into the different layers of the skin using a Franz Diffusion Cell. […]

Results on 1 compound are retold here after patent publication US9364388B2, “Methods of treatment with nitric oxide at pressures greater than one atmosphere” (Barry University, priority 2012, dated 2016).

The structures appear in SMILES notation.

Take `[N]=O` [NO, nitric oxide]: the “time for half of the nitric oxide to react to become nitric dioxide” value in series [1] is recorded as “about 3.5 minutes”. Also, in series [2], the “NO penetration in the epidermis and stratum corneum” value was “increased”.
